Reference: patent US10167302B2, “Phosphonate nucleosides useful in the treatment of viral diseases” (University College Cork, priority 2014, dated 2019)
Where two headings read alike, the source gives them in different places.

Assays:
HCMV DNA pol = HCMV DNA pol (Human cytomegalovirus, UniProt P08546); test: HCMV DNA polymerase activity, calf thymus DNA as template primer; format: biochemical; details: [3H]dTTP incorporation, all four dNTPs
Method: (§1) The HCMV and HSV-1 DNA polymerase activity was measured in the presence of calf thymus DNA as template primer, and all four dNTPs as the nucleotide substrates of which dTTP was tritiated.

HIV-1 RT = target: T1, HIV-1 RT (Human immunodeficiency virus type 1 group M subtype B, UniProt P04585); test: HIV-1 RT assay in the presence of artificial template/primer; format: biochemical
T1 construct: HIV-1 RT Assays in the Presence of Artificial Template/Primer
Method: HIV-1 RT Assays in the Presence of Artificial Template/Primer
To prepare the template/primers for the RT experiments, 0.15 mM poly(U), poly(A), and poly(I) were mixed with an equal volume of 0.0375 mM oligo(dA), oligo(dT), and oligo(dC), respectively. The final concentrations of the templates in the RT reaction mixture were 0.015 mM. The reaction mixture (50 μl) contained 50 mM Tris.HCl (pH 7.8), 5 mM dithiothreitol, 300 mM glutathione, 500 μM EDTA, 150 mM KCl, 5 mM MgCl2, 1.25 μg of bovine serum albumin, an appropriate concentration of labeled (tritiated) substrate dTTP, dCTP, or dATP (2 μCi/assay), a fixed concentration of the template/primer poly(A).oligo(dT) (0.015 mM), poly(I).oligo(dC) (0.015 mM), and poly(U).oligo(dA) (0.015 mM), 0.06% Triton X-100, 10 μl of inhibitor solution (containing various concentrations of the compounds), and 1 μl of the RT preparation. The reaction mixtures were incubated at 37° C. for 30 min, at which time 100 μl of yeast RNA (1 mg/ml) and 1 ml of Na4P2O7 (0.02 M) in trichloroacetic acid (5% v/v) were added. The solutions were kept on ice for 30 min, after which the acid-insoluble material was washed and analyzed for radioactivity.

HSV-1 DNA pol = HSV-1 DNA pol (Human herpesvirus 1, UniProt P04293); test: HSV-1 DNA polymerase activity, calf thymus DNA as template primer; format: biochemical; details: [3H]dTTP incorporation, all four dNTPs
Chain of HSV-1 DNA pol (P04293 whole entry): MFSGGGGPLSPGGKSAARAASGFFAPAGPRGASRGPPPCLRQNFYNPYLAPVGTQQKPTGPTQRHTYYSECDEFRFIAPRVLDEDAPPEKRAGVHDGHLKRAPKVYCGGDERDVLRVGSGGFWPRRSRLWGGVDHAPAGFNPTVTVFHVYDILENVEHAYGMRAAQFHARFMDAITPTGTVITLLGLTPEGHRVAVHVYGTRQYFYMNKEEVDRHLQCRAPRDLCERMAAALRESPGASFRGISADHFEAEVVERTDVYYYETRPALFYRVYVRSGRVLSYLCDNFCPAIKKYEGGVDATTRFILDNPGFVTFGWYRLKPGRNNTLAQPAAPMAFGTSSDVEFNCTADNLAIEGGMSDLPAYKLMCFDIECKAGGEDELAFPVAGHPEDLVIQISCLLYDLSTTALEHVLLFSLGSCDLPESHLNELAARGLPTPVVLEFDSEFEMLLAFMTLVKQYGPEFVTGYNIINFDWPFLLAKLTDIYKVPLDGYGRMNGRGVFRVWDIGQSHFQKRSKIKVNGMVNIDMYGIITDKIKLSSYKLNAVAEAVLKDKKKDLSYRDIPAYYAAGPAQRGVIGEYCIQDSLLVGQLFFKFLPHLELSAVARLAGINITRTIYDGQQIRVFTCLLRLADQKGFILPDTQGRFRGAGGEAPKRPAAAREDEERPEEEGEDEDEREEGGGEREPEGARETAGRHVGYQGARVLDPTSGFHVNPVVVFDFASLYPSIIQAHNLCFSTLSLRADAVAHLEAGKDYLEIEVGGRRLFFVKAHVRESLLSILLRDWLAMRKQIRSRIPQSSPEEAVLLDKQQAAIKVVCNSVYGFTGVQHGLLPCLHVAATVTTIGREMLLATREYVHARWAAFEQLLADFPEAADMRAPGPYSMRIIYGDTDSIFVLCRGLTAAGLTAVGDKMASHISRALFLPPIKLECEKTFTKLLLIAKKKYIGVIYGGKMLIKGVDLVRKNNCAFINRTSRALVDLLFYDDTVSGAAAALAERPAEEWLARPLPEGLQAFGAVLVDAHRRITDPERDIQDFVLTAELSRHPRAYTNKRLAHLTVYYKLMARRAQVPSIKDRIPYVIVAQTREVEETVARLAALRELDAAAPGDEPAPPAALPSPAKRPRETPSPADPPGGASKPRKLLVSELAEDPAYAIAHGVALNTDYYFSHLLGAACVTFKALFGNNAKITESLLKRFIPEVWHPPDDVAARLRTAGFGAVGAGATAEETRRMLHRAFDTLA
Method: as §1

[1] = values marked *: in poly rA.dT/dTTP RT assay, read-out: IC50 HIV-1 RT

Chain of HCMV DNA pol (P08546 whole entry): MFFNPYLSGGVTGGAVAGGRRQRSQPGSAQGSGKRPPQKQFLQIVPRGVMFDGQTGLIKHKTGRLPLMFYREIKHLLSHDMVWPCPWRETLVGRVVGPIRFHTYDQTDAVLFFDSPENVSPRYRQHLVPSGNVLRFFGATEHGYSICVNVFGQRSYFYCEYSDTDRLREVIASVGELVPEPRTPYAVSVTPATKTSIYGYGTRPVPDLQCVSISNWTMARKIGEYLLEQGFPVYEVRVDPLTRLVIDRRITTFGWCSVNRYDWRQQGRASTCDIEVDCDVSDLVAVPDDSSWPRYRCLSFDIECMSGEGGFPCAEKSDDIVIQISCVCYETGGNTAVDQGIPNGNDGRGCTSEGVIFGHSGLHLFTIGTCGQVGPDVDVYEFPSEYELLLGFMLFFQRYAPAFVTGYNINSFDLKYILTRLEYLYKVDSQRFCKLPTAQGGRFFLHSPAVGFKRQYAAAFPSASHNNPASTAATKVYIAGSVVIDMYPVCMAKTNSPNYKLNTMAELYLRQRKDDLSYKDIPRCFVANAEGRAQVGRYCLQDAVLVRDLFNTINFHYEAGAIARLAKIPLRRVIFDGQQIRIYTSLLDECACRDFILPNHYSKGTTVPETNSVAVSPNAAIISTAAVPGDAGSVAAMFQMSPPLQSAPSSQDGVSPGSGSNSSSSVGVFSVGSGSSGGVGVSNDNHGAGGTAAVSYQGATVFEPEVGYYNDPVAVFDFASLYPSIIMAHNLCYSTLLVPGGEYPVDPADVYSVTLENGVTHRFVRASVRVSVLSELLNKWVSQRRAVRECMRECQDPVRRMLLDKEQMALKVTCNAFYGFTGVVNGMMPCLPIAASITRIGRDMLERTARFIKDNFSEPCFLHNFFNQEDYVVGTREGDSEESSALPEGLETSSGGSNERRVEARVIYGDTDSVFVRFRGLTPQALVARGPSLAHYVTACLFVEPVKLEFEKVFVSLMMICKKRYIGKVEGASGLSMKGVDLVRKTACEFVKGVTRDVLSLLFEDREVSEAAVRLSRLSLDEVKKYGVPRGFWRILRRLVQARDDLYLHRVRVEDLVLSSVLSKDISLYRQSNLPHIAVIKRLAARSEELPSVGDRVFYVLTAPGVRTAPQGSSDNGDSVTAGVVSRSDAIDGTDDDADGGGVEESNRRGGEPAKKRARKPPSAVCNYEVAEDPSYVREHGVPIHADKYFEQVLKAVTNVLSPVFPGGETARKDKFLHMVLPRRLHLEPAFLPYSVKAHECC

melting point	Compound	IC50 (HCMV DNA pol)	IC50 (HIV-1 RT)	IC50 (HSV-1 DNA pol)	IC50 (HIV-1 RT; [1])
	Cc1cn(CCOC(C(=O)O)P(=O)(O)O)c(=O)[nH]c1=O (stereo not drawn) [Compound 8a, 2-(2-(5-Methyl-2,4-dioxo-3,4-dihydropyrimidin-1(2H)-yl)ethoxy)-2-phosphonoacetic acid]	161 ± 8 µM	17 µM	19 µM	
	Cc1cn(CC(C)OC(C(=O)O)P(=O)(O)O)c(=O)[nH]c1=O (stereo not drawn) [Compound 8b, 2-((1-(5-Methyl-2,4-dioxo-3,4-dihydropyrimidin-1(2H)-yl)propan-2-yl)oxy)-2-phosphonoacetic acid]	111 ± 24 µM	18 µM	12 µM	
	Cc1cn(C(C)COC(C(=O)O)P(=O)(O)O)c(=O)[nH]c1=O (stereo not drawn) [Compound 8c, 2-(2-(5-Methyl-2,4-dioxo-3,4-dihydropyrimidin-1(2H)-yl)propoxy)-2-phosphonoacetic acid]	> 200 µM	133 ± 16 µM	16 µM	
	Cc1cn(C/C=C\COC(C(=O)O)P(=O)(O)O)c(=O)[nH]c1=O (stereo not drawn) [Compound 13a, cis-2-(4-(2,4-Dioxo-5-methyl-pyrimidin-1-yl)but-2-enyloxy)-2-phosphonoacetic acid]	2.1 ± 0.6 µM	235 ± 16 µM	20 µM	
	Cc1cn(CC#CCOC(C(=O)O)P(=O)(O)O)c(=O)[nH]c1=O (stereo not drawn) [Compound 13b, 2-(4-(2,4-Dioxo-5-methyl-pyrimidin-1-yl)but-2-ynyloxy)-2-phosphonoacetic acid]	> 500 µM	> 500 µM		
	Cc1cn(C[C@H]2C[C@H]2COC(C(=O)O)P(=O)(O)O)c(=O)[nH]c1=O (stereo partly drawn) [Compound 13c]	4.6 ± 0.2 µM	440 ± 85 µM	35 µM	
	Cc1cn(C[C@H]2CCC[C@H]2COC(C(=O)O)P(=O)(O)O)c(=O)[nH]c1=O (stereo partly drawn) [Compound 13d]	40 ± 25 µM	≥ 500 µM	34 µM	
	Cc1cn(C[C@H]2CC=CC[C@H]2COC(C(=O)O)P(=O)(O)O)c(=O)[nH]c1=O (stereo partly drawn) [Compound 13e]	3 ± 0.5 µM	425 ± 106 µM	16 µM	
	Cc1cn(C[C@H]2C3C=CC(C3)[C@H]2COC(C(=O)O)P(=O)(O)O)c(=O)[nH]c1=O (stereo partly drawn) [Compound 13f]	14 ± 2 µM	340 ± 139 µM	32 µM	
	Cc1cn(Cc2ccccc2COC(C(=O)O)P(=O)(O)O)c(=O)[nH]c1=O (stereo not drawn) [Compound 13g, 2-(2-((2,4-Dioxo-5-methyl-pyrimidin-1-yl)methyl)benzyloxy)-2-phosphonoacetic acid]	13 ± 4 µM	131 ± 86 µM	11 µM	
	Cc1cn(CCCCOC(C(=O)O)P(=O)(O)O)c(=O)[nH]c1=O (stereo not drawn) [Compound 13h, 2-(4-(2,4-Dioxo-5-methyl-pyrimidin-1-yl)butyloxy)-2-phosphonoacetic acid]	29 ± 3 µM	145 ± 106 µM	56 µM	
	Cc1cn(C[C@H]2CCCC[C@H]2COC(C(=O)O)P(=O)(O)O)c(=O)[nH]c1=O (stereo partly drawn) [Compound 13i]	4 µM	≥ 500 µM	13 µM	
	COC(=O)C(OC[C@@H]1CCCC[C@@H]1Cn1cc(C)c(=O)[nH]c1=O)P(=O)(O)O (stereo partly drawn) [Compound 13j]	16 ± 3 µM	≥ 500 µM	43 µM	
	O=C(O)C(OC/C=C\Cn1cc(F)c(=O)[nH]c1=O)P(=O)(O)O (stereo not drawn) [Compound 13k, 2-Cis-(4-(5-fluoro-2,4-dioxo-3,4-dihydropyrimidin-1(2H)-yl)but-2-enyloxy)-2-phosphonoacetic acid]				> 500 µM
	O=C(O)C(OCCCCn1cc(F)c(=O)[nH]c1=O)P(=O)(O)O (stereo not drawn) [Compound 13l, 2-(4-(5-fluoro-2,4-dioxo-3,4-dihydropyrimidin-1(2H)-yl)butoxy)-2-phosphonoacetic acid]				214 µM
	Nc1ncnc2c1ncn2C/C=C\COC(C(=O)O)P(=O)(O)O (stereo not drawn) [Compound 13m, 2-Cis-(4-(6-amino-9H-purin-9-yl)but-2-enyloxy)-2-phosphonoacetic acid]				426 µM
	Nc1nc(Cl)c2ncn(C/C=C\COC(C(=O)O)P(=O)(O)O)c2n1 (stereo not drawn) [Compound 13n, 2-Cis-(4-(2-amino-6-chloro-9H-purin-9-yl)but-2-enyloxy)-2-phosphonoacetic acid]				≥ 500 µM
	Nc1ccn(C/C=C\COC(C(=O)O)P(=O)(O)O)c(=O)n1 (stereo not drawn) [Compound 13o, 2-Cis-(4-(4-amino-2-oxopyrimidin-1(2H)-yl)but-2-enyloxy)-2-phosphonoacetic acid]				246 µM
189 to 191 °C	Cc1cn(Cc2cn(CCOC(C(=O)O)P(=O)(O)O)nn2)c(=O)[nH]c1=O (stereo not drawn) [JJ-210, 2-(2-(4-((5-methyl-2,4-dioxo-3,4-dihydropyrimidin-1(2H)-yl)methyl)-1H-1,2,3-triazol-1-yl)ethoxy)-2-phosphonoacetic acid]				
199 to 201 °C	Cc1cn(C[C@@H](O)[C@@H](O)COC(C(=O)O)P(=O)(O)O)c(=O)[nH]c1=O (stereo partly drawn) [JJ-379]				
